This series is described as follows: recombinant UMI read abundance after kanamycin selection (control-corrected) (log10(CPM+1)); higher = more efficient recombination; extreme values may be limits of the assay; sequences stand for … in AGTGCAGAGAAAATCGGCCAGTTTTCTCTGCCTGCAGTCCGCATGCCGTGGGACCCCTTGGGTTCTAACCTGTTGCCTAGATTTATGCAGCGGACTGCCTTTCTCCCAAAGTGATAAACCGG…AGGTTGGTTTCACT; site = the 11-nt donor. The gist of the method:
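For the IS621 bridge recombinase, a pooled Escherichia coli screen tested donor and donor-binding-loop pairs. Cells received the pair library together with a target plasmid encoding a fixed target and T7-inducible recombinase, then went onto IPTG (0.07 mM) plus kanamycin or unselected plates in duplicate. After PCR across the donor–target junction and sequencing, recombinant UMI counts were normalized to CPM, averaged, and scaled by control-derived factors. Each value is given as log10(CPM+1).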
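Also: IS621 bridge recombinase in Escherichia coli cells against a fixed T5 target plasmid.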

In the case of “CAATGCTCATGGACCGGTTTTCCCGGTAATCCGTATTTGAA (site CTATGCTCTTT)”, the “recombinant UMI read abundance (log10)” value is 0.217.

Regarding “CAATGCTCATGGACCGGTTTTCCCGGTAATCCGTATTTGAA (site GAATGCTCTTT)”, the “recombinant UMI read abundance (log10)” value turned out to be 0.00437.

For the sequence “CAATGCTCATGGACCGGTTTTCCCGGTAATCCGTATTTGAA (site TAATGCTCTTT)”, the “recombinant UMI read abundance (log10)” value turned out to be 0.0133.

Regarding “CAATGCTCATGGACCGGTTTTCCCGGTAATCCGTATTTGTA (site CAATGCTCTTA)”, the “recombinant UMI read abundance (log10)” value was found to be 3.1.

For the sequence “CAATGCTCATGGACCGGTTTTCCCGGTAATCCGTATTTGTA (site CAATGCTCTTC)”, the “recombinant UMI read abundance (log10)” value was 0.746.

In the case of “CAATGCTCATGGACCGGTTTTCCCGGTAATCCGTATTTGTA (site CAATGCTCTTG)”, the “recombinant UMI read abundance (log10)” value stood at 2.25.

Take “CAATGCTCATGGACCGGTTTTCCCGGTAATCCGTATTTGTA (site CAATGCTCTTT)”: the “recombinant UMI read abundance (log10)” value was determined as 1.55.

On to “CAATTCCCATGGACCGGTTTTCCCGGTAATCCGTATTTGAT (site CAATTCCCTAA)”, for which the “recombinant UMI read abundance (log10)” value was 0.00345.

Regarding “CAATTCCCATGGACCGGTTTTCCCGGTAATCCGTATTTGAT (site CAATTCCCTAC)”, the “recombinant UMI read abundance (log10)” value was determined as 0.

In the case of “CAATTCCCATGGACCGGTTTTCCCGGTAATCCGTATTTGAT (site CAATTCCCTAG)”, the “recombinant UMI read abundance (log10)” value came to 0.

Turning to “CAATTCCCATGGACCGGTTTTCCCGGTAATCCGTATTTGAT (site CAATTCCCTAT)”, the “recombinant UMI read abundance (log10)” value was 1.7.

As to “CAATTCCCATGGACCGGTTTTCCCGGTAATCCGTATTTGCG (site CAATTCCCTAG)”, the “recombinant UMI read abundance (log10)” value was 1.26.

“CAATTCCCATGGACCGGTTTTCCCGGTAATCCGTATTTGCG (site CAATTCCCTCG)”: the “recombinant UMI read abundance (log10)” value worked out at 2.33.

With “CAATTCCCATGGACCGGTTTTCCCGGTAATCCGTATTTGCG (site CAATTCCCTGG)”, the “recombinant UMI read abundance (log10)” value came to 0.

Consider “CAATTCCCATGGACCGGTTTTCCCGGTAATCCGTATTTGCG (site CAATTCCCTTG)”, for which the “recombinant UMI read abundance (log10)” value turned out to be 1.67.

Consider “CAATTGCCATGGACCGGTTTTCCCGGTAATCCGTATTTGCT (site CAATTACCTAG)”, for which the “recombinant UMI read abundance (log10)” value was determined as 0.

As to “CAATTGCCATGGACCGGTTTTCCCGGTAATCCGTATTTGCT (site CAATTCCCTAG)”, the “recombinant UMI read abundance (log10)” value came out at 0.

For the sequence “CAATTGCCATGGACCGGTTTTCCCGGTAATCCGTATTTGCT (site CAATTGCCTAG)”, the “recombinant UMI read abundance (log10)” value was determined as 1.32.

For “CAATTGCCATGGACCGGTTTTCCCGGTAATCCGTATTTGCT (site CAATTTCCTAG)”, the “recombinant UMI read abundance (log10)” value was 0.

On to “CACAAAACATGGACCGGTTTTCCCGGTAATCCGTATTTGGC (site CACAAAACTGC)”, for which the “recombinant UMI read abundance (log10)” value came to 1.79.

On to “CACAAACCATGGACCGGTTTTCCCGGTAATCCGTATTTGGT (site AACAAACCTAC)”, for which the “recombinant UMI read abundance (log10)” value was determined as 0.

For the sequence “CACAAACCATGGACCGGTTTTCCCGGTAATCCGTATTTGGT (site CACAAACCTAC)”, the “recombinant UMI read abundance (log10)” value is 0.

As for “CACAAACCATGGACCGGTTTTCCCGGTAATCCGTATTTGGT (site GACAAACCTAC)”, the “recombinant UMI read abundance (log10)” value amounted to 0.

On to “CACAAACCATGGACCGGTTTTCCCGGTAATCCGTATTTGGT (site TACAAACCTAC)”, for which the “recombinant UMI read abundance (log10)” value is 0.

For “CACACATCATGGACCGGTTTTCCCGGTAATCCGTATTTGCC (site CACACATCTGG)”, the “recombinant UMI read abundance (log10)” value is 2.15.

In the case of “CACACCTCATGGACCGGTTTTCCCGGTAATCCGTATTTGGC (site CACACCTCTGC)”, the “recombinant UMI read abundance (log10)” value came to 3.07.

As for “CACACTGCATGGACCGGTTTTCCCGGTAATCCGTATTTGTA (site CACACTGCTTA)”, the “recombinant UMI read abundance (log10)” value stood at 1.72.

In the case of “CACAGATCATGGACCGGTTTTCCCGGTAATCCGTATTTGAT (site CACAGATCTAT)”, the “recombinant UMI read abundance (log10)” value was 2.37.

Turning to “CACATGGCATGGACCGGTTTTCCCGGTAATCCGTATTTGTA (site CACATGGCTTA)”, the “recombinant UMI read abundance (log10)” value turned out to be 2.31.

As to “CACCAGTCATGGACCGGTTTTCCCGGTAATCCGTATTTGAC (site CACCAGTCTGT)”, the “recombinant UMI read abundance (log10)” value was found to be 0.85.

In the case of “CACCGTACATGGACCGGTTTTCCCGGTAATCCGTATTTGCG (site CACCGTACTCG)”, the “recombinant UMI read abundance (log10)” value turned out to be 1.35.

For the sequence “CACCGTCCATGGACCGGTTTTCCCGGTAATCCGTATTTGAT (site AACCGTCCTAT)”, the “recombinant UMI read abundance (log10)” value was determined as 0.117.

Take “CACCGTCCATGGACCGGTTTTCCCGGTAATCCGTATTTGAT (site CACCGTCCTAT)”: the “recombinant UMI read abundance (log10)” value worked out at 1.03.

With “CACCGTCCATGGACCGGTTTTCCCGGTAATCCGTATTTGAT (site GACCGTCCTAT)”, the “recombinant UMI read abundance (log10)” value stood at 0.00326.

For “CACCGTCCATGGACCGGTTTTCCCGGTAATCCGTATTTGAT (site TACCGTCCTAT)”, the “recombinant UMI read abundance (log10)” value stood at 0.0173.

Take “CACCTCTCATGGACCGGTTTTCCCGGTAATCCGTATTTGCT (site CACCTCTCTAG)”: the “recombinant UMI read abundance (log10)” value worked out at 2.84.

“CACCTGCCATGGACCGGTTTTCCCGGTAATCCGTATTTGTC (site CACCTGCCTGA)”: the “recombinant UMI read abundance (log10)” value was 0.

As for “CACCTTACATGGACCGGTTTTCCCGGTAATCCGTATTTGGG (site CACCTTACTCC)”, the “recombinant UMI read abundance (log10)” value turned out to be 0.0575.

As to “CACGCAGCATGGACCGGTTTTCCCGGTAATCCGTATTTGCT (site CAAGCAGCTAG)”, the “recombinant UMI read abundance (log10)” value stood at 0.

On to “CACGCAGCATGGACCGGTTTTCCCGGTAATCCGTATTTGCT (site CACGCAGCTAG)”, for which the “recombinant UMI read abundance (log10)” value was found to be 2.31.

Consider “CACGCAGCATGGACCGGTTTTCCCGGTAATCCGTATTTGCT (site CAGGCAGCTAG)”, for which the “recombinant UMI read abundance (log10)” value came out at 0.261.

Regarding “CACGCAGCATGGACCGGTTTTCCCGGTAATCCGTATTTGCT (site CATGCAGCTAG)”, the “recombinant UMI read abundance (log10)” value turned out to be 0.

For the sequence “CACGCCGCATGGACCGGTTTTCCCGGTAATCCGTATTTGGT (site TTAAGTTCTTG)”, the “recombinant UMI read abundance (log10)” value worked out at 0.

Take “CACGCGTCATGGACCGGTTTTCCCGGTAATCCGTATTTGAG (site CACGCGTCTCT)”: the “recombinant UMI read abundance (log10)” value amounted to 2.11.

“CACGGCACATGGACCGGTTTTCCCGGTAATCCGTATTTGTT (site CACGGCACTAA)”: the “recombinant UMI read abundance (log10)” value is 1.6.

As to “CACGGCACATGGACCGGTTTTCCCGGTAATCCGTATTTGTT (site CACGGCCCTAA)”, the “recombinant UMI read abundance (log10)” value is 0.00343.

On to “CACGGCACATGGACCGGTTTTCCCGGTAATCCGTATTTGTT (site CACGGCGCTAA)”, for which the “recombinant UMI read abundance (log10)” value is 0.6.

With “CACGGCACATGGACCGGTTTTCCCGGTAATCCGTATTTGTT (site CACGGCTCTAA)”, the “recombinant UMI read abundance (log10)” value was 0.746.

Consider “CACGGCTCATGGACCGGTTTTCCCGGTAATCCGTATTTGTT (site CACGGCACTAA)”, for which the “recombinant UMI read abundance (log10)” value stood at 0.963.

Consider “CACGGCTCATGGACCGGTTTTCCCGGTAATCCGTATTTGTT (site CACGGCCCTAA)”, for which the “recombinant UMI read abundance (log10)” value was 0.277.

Regarding “CACGGCTCATGGACCGGTTTTCCCGGTAATCCGTATTTGTT (site CACGGCGCTAA)”, the “recombinant UMI read abundance (log10)” value stood at 0.0461.

With “CACGGCTCATGGACCGGTTTTCCCGGTAATCCGTATTTGTT (site CACGGCTCTAA)”, the “recombinant UMI read abundance (log10)” value was determined as 3.26.

With “CACGTACCATGGACCGGTTTTCCCGGTAATCCGTATTTGAA (site CACGTACCTTT)”, the “recombinant UMI read abundance (log10)” value was 0.24.

As to “CACGTCACATGGACCGGTTTTCCCGGTAATCCGTATTTGAG (site CACGTCACTCT)”, the “recombinant UMI read abundance (log10)” value turned out to be 1.36.

“CACTACGCATGGACCGGTTTTCCCGGTAATCCGTATTTGGA (site CACTACGCTTC)”: the “recombinant UMI read abundance (log10)” value came out at 1.41.

As for “CACTCATCATGGACCGGTTTTCCCGGTAATCCGTATTTGCC (site CACTCATCTGG)”, the “recombinant UMI read abundance (log10)” value was 1.74.

On to “CACTCATCATGGACCGGTTTTCCCGGTAATCCGTATTTGCC (site CACTCCTCTGG)”, for which the “recombinant UMI read abundance (log10)” value worked out at 0.652.

In the case of “CACTCATCATGGACCGGTTTTCCCGGTAATCCGTATTTGCC (site CACTCGTCTGG)”, the “recombinant UMI read abundance (log10)” value was determined as 0.

For the sequence “CACTCATCATGGACCGGTTTTCCCGGTAATCCGTATTTGCC (site CACTCTTCTGG)”, the “recombinant UMI read abundance (log10)” value was determined as 0.

For the sequence “CACTCCACATGGACCGGTTTTCCCGGTAATCCGTATTTGCC (site CACTCCACTGG)”, the “recombinant UMI read abundance (log10)” value amounted to 2.65.

As for “CACTCCACATGGACCGGTTTTCCCGGTAATCCGTATTTGCC (site CACTCCCCTGG)”, the “recombinant UMI read abundance (log10)” value was 0.

Regarding “CACTCCACATGGACCGGTTTTCCCGGTAATCCGTATTTGCC (site CACTCCGCTGG)”, the “recombinant UMI read abundance (log10)” value is 1.8.

For “CACTCCACATGGACCGGTTTTCCCGGTAATCCGTATTTGCC (site CACTCCTCTGG)”, the “recombinant UMI read abundance (log10)” value amounted to 1.26.

Consider “CACTCCGCATGGACCGGTTTTCCCGGTAATCCGTATTTGCC (site CACTCCACTGG)”, for which the “recombinant UMI read abundance (log10)” value came out at 2.05.

Take “CACTCCGCATGGACCGGTTTTCCCGGTAATCCGTATTTGCC (site CACTCCCCTGG)”: the “recombinant UMI read abundance (log10)” value turned out to be 0.

On to “CACTCCGCATGGACCGGTTTTCCCGGTAATCCGTATTTGCC (site CACTCCGCTGG)”, for which the “recombinant UMI read abundance (log10)” value turned out to be 2.73.

On to “CACTCCGCATGGACCGGTTTTCCCGGTAATCCGTATTTGCC (site CACTCCTCTGG)”, for which the “recombinant UMI read abundance (log10)” value worked out at 1.36.

In the case of “CACTCCTCATGGACCGGTTTTCCCGGTAATCCGTATTTGAG (site CACTCCTCTCT)”, the “recombinant UMI read abundance (log10)” value turned out to be 0.883.

Source of the values: the supplement of paper PMC11208160.
